# Calls of active or inactive are those of the source. The calls are words filed in the database; no cut-off is given here. *1 amine or outer side, *2 acyl side, *3 side chain or, on linkers, in order; H or OH if unused. Bridges are numbered along the chain shown (N, C = ends). [ ]: non-standard residue; d: D form. X1 = CCCCCCCCCCCCCCCC(=O)NCCCCCCNC(=O)C(CCCCNC(=O)CCN1C(=O)CC([*:1])C1=O)NC(=O)CCN1C(=O)CC([*:2])C1=O; AEEA = NCCOCCOCC(=O)O; Aib = CC(C)(N)C(=O)O
# Assays:
# Mus musculus [1] = assay: Hypoglycemic activity in db/db mouse assessed as decrease in glucose excursion at 25 nmol/kg, ip dosed 30 mins before test and measured up to 120 mins by OGTT method; assay type: functional, organism-based; conditions: time 150.0 min
# [2] = target: Glucagon-like peptide 1 receptor (Homo sapiens, UniProt P43220); assay: Agonist activity at human GLP-1R expressed in HEK293 cells assessed as stimulation of cAMP accumulation incubated for 20 mins; assay type: functional, cell-based
# Glucagon-like peptide 1 receptor, sequence (P43220 whole entry): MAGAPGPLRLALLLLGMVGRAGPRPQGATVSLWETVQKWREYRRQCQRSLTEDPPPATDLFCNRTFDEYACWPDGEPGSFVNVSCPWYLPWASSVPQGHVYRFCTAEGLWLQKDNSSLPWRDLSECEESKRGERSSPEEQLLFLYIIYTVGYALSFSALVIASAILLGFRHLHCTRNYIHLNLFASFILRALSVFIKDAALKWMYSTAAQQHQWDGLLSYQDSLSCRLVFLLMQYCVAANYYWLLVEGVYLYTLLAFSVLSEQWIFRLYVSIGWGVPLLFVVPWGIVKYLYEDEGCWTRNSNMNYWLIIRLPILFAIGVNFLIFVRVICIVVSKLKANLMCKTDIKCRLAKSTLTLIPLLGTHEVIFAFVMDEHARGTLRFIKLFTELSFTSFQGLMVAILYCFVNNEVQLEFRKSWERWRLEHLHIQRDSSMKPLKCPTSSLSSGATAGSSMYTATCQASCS
# [3] = target: T1, Cholecystokinin receptor type A (Homo sapiens, UniProt P32238); assay: Agonist activity at human CCK-1R expressed in HEK293 cells assessed as stimulation of ERK phosphorylation incubated for 5 mins; assay type: cell-based
# T1 sequence (P32238 whole entry): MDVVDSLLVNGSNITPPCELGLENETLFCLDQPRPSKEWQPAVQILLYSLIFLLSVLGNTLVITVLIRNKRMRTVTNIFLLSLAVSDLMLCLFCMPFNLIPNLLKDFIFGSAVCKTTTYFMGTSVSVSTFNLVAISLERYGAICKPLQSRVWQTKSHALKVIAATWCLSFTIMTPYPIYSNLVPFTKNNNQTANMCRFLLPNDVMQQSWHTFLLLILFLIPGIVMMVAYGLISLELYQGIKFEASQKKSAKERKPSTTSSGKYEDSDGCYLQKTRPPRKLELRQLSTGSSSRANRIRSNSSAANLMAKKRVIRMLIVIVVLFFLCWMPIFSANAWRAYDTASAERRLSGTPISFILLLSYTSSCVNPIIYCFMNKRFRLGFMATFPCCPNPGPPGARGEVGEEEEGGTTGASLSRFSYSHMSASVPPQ
# [4] = target: T2, Gastrin/cholecystokinin type B receptor (Homo sapiens, UniProt P32239); assay: Agonist activity at human CCK-2R expressed in HEK293 cells assessed as stimulation of ERK phosphorylation incubated for 5 mins; assay type: cell-based
# T2 sequence (P32239 whole entry): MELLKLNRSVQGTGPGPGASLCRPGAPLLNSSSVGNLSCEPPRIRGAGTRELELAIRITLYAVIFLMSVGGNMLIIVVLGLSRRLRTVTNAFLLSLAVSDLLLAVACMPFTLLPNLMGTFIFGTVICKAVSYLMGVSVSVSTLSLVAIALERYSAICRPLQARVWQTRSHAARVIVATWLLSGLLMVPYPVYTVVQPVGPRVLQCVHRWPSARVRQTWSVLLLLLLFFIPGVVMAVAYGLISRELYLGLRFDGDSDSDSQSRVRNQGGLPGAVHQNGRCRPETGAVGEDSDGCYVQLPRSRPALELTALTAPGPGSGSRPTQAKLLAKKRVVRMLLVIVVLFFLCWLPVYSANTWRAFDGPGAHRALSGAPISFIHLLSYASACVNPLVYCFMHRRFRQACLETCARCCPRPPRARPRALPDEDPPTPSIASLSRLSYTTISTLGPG
# Mus musculus [5] = assay: Hypoglycemic activity in db/db mouse assessed as improvement in glucose tolerance at 25 nmol/kg, ip dosed 30 mins before test and measured up to 120 mins by OGTT method; assay type: functional, organism-based; conditions: time 150.0 min
# Mus musculus [6] = assay: Insulinotropic activity in db/db mouse assessed as improvement in plasma insulin level at 25 nmol/kg, ip dosed 30 mins before test and measured up to 60 mins by OGTT method; assay type: functional, organism-based; conditions: time 90.0 min
# [7] = Half life in ICR mouse at 50 nmol/kg, sc up to 24 hrs by LC-MS/MS analysis; assay type: ADME, organism-based; conditions: in vivo
# [8] = Tmax in ICR mouse at 50 nmol/kg, sc up to 24 hrs by LC-MS/MS analysis; assay type: ADME, organism-based; conditions: in vivo
# [9] = AUC (0 to infinity) in ICR mouse at 50 nmol/kg, sc up to 24 hrs by LC-MS/MS analysis; assay type: ADME, organism-based; set-up: route subcutaneous, dose 50 nmol/kg, time <=24; conditions: in vivo
# Mus musculus [10] = assay: Hypoglycemic activity in non-fasted db/db mouse assessed as improvement in glucose tolerance at dosed intraperitoneally 30 mins before test and measured up to 120 mins by OGTT method; assay type: functional, organism-based; conditions: time 150.0 min
# Mus musculus [11] = assay: […] activity in non-fasted db/db mouse assessed as improvement in glucose tolerance at dosed intraperitoneally 30 mins before test and measured up to 120 mins by OGTT method; assay type: functional, organism-based; conditions: time 150.0 min
# Mus musculus [12] = assay: Inhibition of liquid-phase gastric emptying in 6 hrs fasted ICR mouse assessed as reduction in blood acetaminophen concentration at 25 nmol/kg, ip dosed 30 mins before acetaminophen dosing by LC-MS/MS analysis; assay type: functional, organism-based
# Mus musculus [13] = assay: Inhibition of solid-phase gastric emptying in fasted ICR mouse at 25 nmol/kg, ip measured after 4 hrs by LC-MS/MS analysis; assay type: functional, organism-based
# [14] = Toxicity in Sprague-Dawley rat assessed as induction of kaolin intake at 25 nmol/kg, ip after 24 hrs by Kaolin consumption test; assay type: organism-based; conditions: in vivo
# Rattus norvegicus [15] = assay: Reduction of food intake in Sprague-Dawley rat at 25 nmol/kg, ip after 24 hrs; assay type: functional, organism-based
# [16] = Toxicity in Sprague-Dawley rat assessed as induction of kaolin intake at 25 nmol/kg, sc BID for 10 days by Kaolin consumption test; assay type: organism-based; conditions: in vivo, 240 h, time 10 day
# Rattus norvegicus [17] = assay: Reduction of food intake in Sprague-Dawley rat at 25 nmol/kg, sc BID for 12 days; assay type: functional, organism-based; conditions: time 12.0 day
# INS1 [18] = assay: Toxicity in rat INS1 cells assessed as reduction cell viability up to 1000 nM after 24 hrs by MTT assay; assay type: cell-based; conditions: ins1, 24 h
# INS1 [19] = assay: Protection against glucotoxicity in rat INS1 cells assessed as recovery of cell viability after 24 hrs in presence of glucotoxicity media by MTT assay; assay type: functional, cell-based
# [20] = Hepatotoxicity in ICR mouse assessed as effect on aspartate aminotransferase level at 1000 nmol/kg, sc BID for 14 days; assay type: toxicity, organism-based; conditions: in vivo, 336 h, time 14 day
# [21] = Hepatotoxicity in ICR mouse assessed as effect on alanine aminotransferase level at 1000 nmol/kg, sc BID for 14 days; assay type: toxicity, organism-based; conditions: in vivo, 336 h, time 14 day
# [22] = Renal toxicity in ICR mouse assessed as effect on serum creatinine level at 1000 nmol/kg, sc BID for 14 days; assay type: organism-based; conditions: in vivo, 336 h, time 14 day
# [23] = Renal toxicity in ICR mouse assessed as effect on blood urea nitrogen level at 1000 nmol/kg, sc BID for 14 days; assay type: organism-based; conditions: in vivo, 336 h, time 14 day
# Mus musculus [24] = assay: Reduction in body weight in C57BL/6 mouse model of high-fat diet induced obesity at 25 nmol/kg, sc BID for 21 days relative to control; assay type: functional; set-up: scale not given: the % may be the effect or the level left; conditions: time 21 day
# Mus musculus [25] = assay: Reduction in body fat content in C57BL/6 mouse model of high-fat diet induced obesity at 25 nmol/kg, sc BID for 21 days relative to control; assay type: functional; set-up: scale not given: the % may be the effect or the level left; conditions: time 21 day
# Mus musculus [26] = assay: Reduction in fasting blood glucose in C57BL/6 mouse model of high-fat diet induced obesity at 25 nmol/kg, sc BID for 21 days relative to control; assay type: functional, organism-based; conditions: time 21.0 day
# Mus musculus [27] = assay: Improvement in glucose tolerance in C57BL/6 mouse model of high-fat diet induced obesity at 25 nmol/kg, sc BID for 21 days relative to control; assay type: functional, organism-based; conditions: time 21.0 day
# Mus musculus [28] = assay: Reduction in serum cholesterol in C57BL/6 mouse model of high-fat diet induced obesity at 25 nmol/kg, sc BID for 21 days relative to control; assay type: functional, organism-based; conditions: time 21.0 day
# Mus musculus [29] = assay: Reduction in serum triglyceride in C57BL/6 mouse model of high-fat diet induced obesity at 25 nmol/kg, sc BID for 21 days relative to control; assay type: functional, organism-based; conditions: time 21.0 day
# Mus musculus [30] = assay: Reduction in cumulated food intake in db/db mouse at 25 nmol/kg, sc BID for 21 days relative to control; assay type: functional, organism-based; conditions: time 21.0 day
# Mus musculus [31] = assay: Reduction in body weight gain in db/db mouse at 25 nmol/kg, sc BID for 21 days relative to control; assay type: functional, organism-based; conditions: time 21.0 day
# Mus musculus [32] = assay: Improvement in fasted blood glucose level in db/db mouse at 25 nmol/kg, sc BID for 21 days relative to control; assay type: functional, organism-based; conditions: time 21.0 day
# Mus musculus [33] = assay: Improvement in HbA1c level in db/db mouse at 25 nmol/kg, sc BID for 21 days relative to control; assay type: functional, organism-based; conditions: time 21.0 day
# Mus musculus [34] = assay: Improvement in pancreatic beta cell area level in db/db mouse at 25 nmol/kg, sc BID for 21 days relative to control; assay type: functional, organism-based; conditions: time 21.0 day
# Mus musculus [35] = assay: Inhibition of pancreatic non-beta cell area (alpha-cell) level in db/db mouse at 25 nmol/kg, sc BID for 21 days relative to control; assay type: functional, organism-based; conditions: time 21.0 day
# Mus musculus [36] = assay: Improvement in pancreatic islet area and number level in db/db mouse at 25 nmol/kg, sc BID for 21 days relative to control; assay type: functional, organism-based; conditions: time 21.0 day
# Mus musculus [37] = assay: Improvement in insulin content in db/db mouse at 25 nmol/kg, sc BID for 21 days relative to control; assay type: functional, organism-based; conditions: time 21.0 day
# Mus musculus [38] = assay: Improvement in glucose tolerance in db/db mouse at 25 nmol/kg, sc BID for 6 weeks followed by another 6 week saline treatment relative to control; assay type: functional, organism-based
# Mus musculus [39] = assay: Improvement in fasted blood glucose level in db/db mouse at 25 nmol/kg, sc BID for 6 weeks followed by another 6 week saline treatment relative to control; assay type: functional, organism-based
# Mus musculus [40] = assay: Reduction in Hb1Ac level in db/db mouse at 25 nmol/kg, sc BID for 6 weeks followed by another 6 week saline treatment relative to control; assay type: functional, organism-based
substance,measurement,setting,value
H-H[Aib]EGTYTNDVTEYCEEEAAKCFIEWLIKGKPSSGAPPPS[AEEA][AEEA]YGWLDF-NH2 (linker 14-21 via X1),Activity,Mus musculus [1],Active
same,EC50,[2],0.022 nM
same,EC50,[3],> 1000 nM
same,EC50,[4],7.3 nM
same,Activity,Mus musculus [5],Active
same,Activity,Mus musculus [6],Active
same,half-life,[7],4.4 h
same,Tmax,[8],4 h
same,AUC(0-inf),[9],15900 ng·h/mL
same,Activity,Mus musculus [10],Dose-dependent effect
same,Activity,Mus musculus [11],Dose-dependent effect
same,inhibition,Mus musculus [12],Active
same,inhibition,Mus musculus [13],Active
same,Activity,[14],Non-Toxic
same,Activity,Rattus norvegicus [15],Active
same,Activity,[16],Non-Toxic
same,Activity,Rattus norvegicus [17],Active
same,Activity,INS1 [18],Non-Toxic
same,Activity,INS1 [19],Dose-dependent effect
same,Activity,[20],Non-Toxic
same,Activity,[21],Non-Toxic
same,Activity,[22],Non-Toxic
same,Activity,[23],Non-Toxic
same,Activity,Mus musculus [24],26.3%
same,Activity,Mus musculus [25],32.2%
same,Activity,Mus musculus [26],Active
same,Activity,Mus musculus [27],Active
same,Activity,Mus musculus [28],Active
same,Activity,Mus musculus [29],Active
same,Activity,Mus musculus [30],Active
same,Activity,Mus musculus [31],Active
same,Activity,Mus musculus [32],Active
same,Activity,Mus musculus [33],Active
same,Activity,Mus musculus [34],Active
same,inhibition,Mus musculus [35],Active
same,Activity,Mus musculus [36],Active
same,Activity,Mus musculus [37],Active
same,Activity,Mus musculus [38],Active
same,Activity,Mus musculus [39],Active
same,Activity,Mus musculus [40],Active
